Data published in patent US20090012183A1, “Composition comprising polyphenol” (Conopco, Inc. d/b/a Unilever, priority 2007, published 2009).

Tests used:
[1] = tested on: rat aorta; settings: cited from earlier work; for vasorelaxing effect: Chen and Pace Asciak, Gen. Pharmac. 27(2), 363-366 (1996)
[2] = tested on: 2nd order mesenteric artery side branches; experiment: Reactivity of isolated arteries: dilator effect during contraction induced by 40 mmol/L K+; design: species or system Spontaneously Hypertensive Rats (SHR)
Protocol: Segments of 2nd order mesenteric artery side branches were isolated from 14 weeks old male Spontaneously Hypertensive Rats (SHR). Two stainless-steel wires (diameter 40 μm) were inserted in the lumen of the arterial segments, which were then mounted in organ chambers between an isometric force transducer and a displacement device (Danish Myotechnology by J. P. Trading, Denmark). The organ chambers were filled with Krebs-Ringer bicarbonate solution which was maintained at 37° C. and continuously aerated with 95% O2 and 5% CO2. Before the actual experiments started, arterial segments were stretched to their individual optimal lumen diameter for mechanical performance, i.e. the diameter at which maximal contractile responses to noradrenaline ([…]) were obtained. In each experiment four second order mesenteric resistance arterial segments from one animal were mounted in individual organ chambers and studied in parallel. At the start of the experiments, all four arterial preparations were incubated during 20 min with capsaicin (1 μmol/L) to persistently desensitize sensory-motor nerves and to obtain a stable and considerable contractile response to potassium (K^+, 40 mmol/L). During all the experiments superoxide dismutase (SOD, 5 U/ml) was present, to preserve stability of the metabolites. We tested the effects of the 35 different phenolic compounds using a Plackett-Burman screening design. The experiment consisted of 5 separate saturated 8 run Plackett-burman designs. Each design contained a subset of 7 phenolic compounds (Factors): One of the compounds tested was trans-resveratrol (in this case compound 30). […] In this way, the effects of different exposure times to the mixtures (7, 30 and 90 min) on K+-induced contraction, could be evaluated. […] Effects of increasing concentrations of the solvent and of the mixes (0.1 to 100 umol/L) during contractile responses to 40 mmol/L K+, were calculated as % change of the level of pre-contraction. […]

| EC50 ([2]; Rattus norvegicus, isolated SHR mesenteric resistance arteries precontracted with 40 mmol/L K+, found by comparing mixtures (Plackett-Burman design), corrected for DMSO solvent, read-out: EC50 of dilation of the arteries) | Structure (SMILES) | vasorelaxing effect [1] | relaxation of the rat aorta ([1]; Fitzpatrick et al, Am. J. physiol. 265, H774-H778, 1993) | influence on the dilation of the arteries ([2]; at a low concentration, comparison of different mixtures) | concentration at which the maximum dilatation was obtained ([2]; isolated SHR mesenteric resistance arteries precontracted with 40 mmol/L K+, mixtures tested 0.1-100 umol/L) |
| --- | --- | --- | --- | --- | --- |
|  | O=c1c(O)c(-c2ccc(O)c(O)c2)oc2cc(O)cc(O)c12 [quercitin] | vasorelaxing effect |  |  |  |
|  | Oc1ccc(C=Cc2cc(O)cc(O)c2)cc1 [resveratrol] | vasorelaxing effect | did not relax |  |  |
| 11.6 µM | Oc1ccc(C=Cc2cc(O)cc(O)c2)cc1 [trans-resveratrol, 3,5,4′-trihydroxystilbene] |  |  | significant influence | 100 µM |
